According to patent publication US6927214B1 (Novo Nordisk A/S, priority 1999, dated 2005):
Read-outs that look alike come from different tables or passages of the source.

Tests used:
[1] = target: T1, human GLP-1 receptor (Homo sapiens, UniProt P43220); experiment: Saturation experiments with labelled GLP-1 tracer on plasma membranes, with or without example 2; type: binding; set-up: expressed in transfected cells; host or cells: BHK (baby hamster kidney) cells; plasma membranes prepared from them; settings: 10 μM compound, saturation experiment
T1 sequence (P43220 24-463): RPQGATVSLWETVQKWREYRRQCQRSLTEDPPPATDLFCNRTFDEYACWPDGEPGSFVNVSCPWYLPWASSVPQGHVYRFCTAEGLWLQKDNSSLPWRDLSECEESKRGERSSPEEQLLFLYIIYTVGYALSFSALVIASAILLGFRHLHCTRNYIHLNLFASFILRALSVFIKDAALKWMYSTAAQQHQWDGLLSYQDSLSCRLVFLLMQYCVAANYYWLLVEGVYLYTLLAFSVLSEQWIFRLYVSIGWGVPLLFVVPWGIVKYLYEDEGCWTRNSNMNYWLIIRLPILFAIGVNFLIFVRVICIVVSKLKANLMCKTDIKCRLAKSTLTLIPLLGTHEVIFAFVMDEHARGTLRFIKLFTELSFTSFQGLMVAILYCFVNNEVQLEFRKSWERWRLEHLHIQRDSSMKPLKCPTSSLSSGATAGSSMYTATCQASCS

[2] = target: T2, human glucagon receptor (Homo sapiens, UniProt P47871); experiment: Stimulation of cAMP formation in a cell line expressing the cloned human glucagon receptor; type: biochemical; settings: concentrations tested up to 100 μM
T2 construct: expressed in transfected cells
T2 sequence (P47871 26-477): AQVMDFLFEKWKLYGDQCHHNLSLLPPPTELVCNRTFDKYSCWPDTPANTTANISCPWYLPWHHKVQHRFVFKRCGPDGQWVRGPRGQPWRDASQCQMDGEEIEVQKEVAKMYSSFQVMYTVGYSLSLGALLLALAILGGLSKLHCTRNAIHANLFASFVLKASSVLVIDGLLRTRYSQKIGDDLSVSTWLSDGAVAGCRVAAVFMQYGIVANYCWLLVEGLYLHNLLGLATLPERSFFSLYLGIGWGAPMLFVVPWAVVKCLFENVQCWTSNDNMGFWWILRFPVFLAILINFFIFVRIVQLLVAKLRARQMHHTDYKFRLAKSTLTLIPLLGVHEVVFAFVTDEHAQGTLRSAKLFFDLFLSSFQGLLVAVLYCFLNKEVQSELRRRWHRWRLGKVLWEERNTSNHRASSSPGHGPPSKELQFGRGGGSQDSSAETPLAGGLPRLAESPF

[3] = target: T1, human GLP-1 receptor; set-up: Emax: dose or concentration left out as unconfirmed
[4] = target: T1, human GLP-1 receptor; experiment: biochemical

Row | SMILES | EC50 [3] [µM] | Emax [3] [%] | EC50 [4] [µM] | Emax [4] [%] | also measured
1 | Cc1nnc(Sc2nc3cc(Cl)c(Cl)cc3nc2C(F)(F)F)s1 [Example 2, 6,7-Dichloro-2-trifluoromethyl-3-(5-methyl-1,3,4-thiadiazol-2-ylsulfanyl)quinoxaline] | 0.31 | 100 | – | – | effect on the affinity of the receptor for GLP-1 [1]: changed the affinity of the receptor for GLP-1; agonist activity (cAMP formation) [2]: no measurable activity
2 | Cc1nnc([S+]([O-])c2nc3cc(Cl)c(Cl)cc3nc2C(C)C)s1 (stereo not shown) [Example 6, 6,7-Dichloro-2-isopropyl-3-(5-methyl-1,3,4-thiadiazol-2-ylsulfinyl)quinoxaline] | 0.17 | 94 | – | – | –
3 | Cc1nnc(S(=O)(=O)c2nc3cc(Cl)c(Cl)cc3nc2C(C)C)s1 [Example 7, 6,7-Dichloro-2-isopropyl-3-(5-methyl-1,3,4-thiadiazol-2-ylsulfonyl)quinoxaline] | 0.078 | 120 | – | – | –
4 | CS(=O)(=O)c1nc2cc(Cl)c(Cl)cc2nc1C(F)(F)F [Example 19, 6,7-Dichloro-2-methanesulfonyl-3-trifluoromethylquinoxaline] | 0.16 | 120 | – | – | –
5 | CC(C)S(=O)(=O)c1nc2cc(Cl)c(Cl)cc2nc1C(F)(F)F [Example 20, 6,7-Dichloro-2-trifluoromethyl-3-isopropylsulfonylquinoxaline] | 0.068 | 140 | – | – | –
6 | O=Cc1cc2cc(Cl)ccc2nc1Cl [Example 25, 2,6-Dichloroquinoline-3-carbaldehyde] | – | 15 | – | – | –
7 | CSc1nc2ccc(Cl)cc2cc1C=O [Example 29, 6-Chloro-2-methylsulfanylquinoline-3-carbaldehyde] | – | 13 | – | – | –
8 | Cc1nc2cc(Cl)ccc2nc1Cl [Example 46, 2,6-Dichloro-3-methylquinoxaline] | > 33 | 0 | – | – | –
9 | COc1nc2ccc(Cl)cc2nc1Cl [Example 47, 2,7-Dichloro-3-methoxyquinoxaline] | 10 | 50 | – | – | –
10 | Cc1nc2cc(Cl)c(Cl)cc2nc1S(C)(=O)=O [Example 56, 6,7-Dichloro-3-methyl-2-(methylsulfonyl)quinoxaline] | 0.078 | 130 | – | – | –
11 | CC(C)c1nc2cc(Cl)c(Cl)cc2nc1S(=O)(=O)c1cncn1C [Example 65, 6,7-Dichloro-2-isopropyl-3-(1-methyl-1H-imidazol-5-ylsulfonyl)quinoxaline] | – | – | 0.65 | 53 | –
12 | CCCc1nc2cc(Cl)c(Cl)cc2nc1S(C)(=O)=O [Example 92, 6,7-Dichloro-2-(methylsulfonyl)-3-propylquinoxaline] | – | – | 0.77 | 53 | –
13 | CC(C)(C)Nc1nc2cc(Cl)c(Cl)cc2nc1S(C)(=O)=O [Example 103, N-[6,7-Dichloro-3-(methylsulfonyl)-2-quinoxalinyl]N-tert-butylamine] | – | – | 0.05 | 80 | –
14 | CS(=O)(=O)c1nc2cc(Cl)c(Cl)cc2nc1NC1CCCc2ccccc21 (stereo not shown) [Example 108, N-[6,7-Dichloro-3-(methylsulfonyl)-2-quinoxalinyl]-N-(1,2,3,4-tetrahydro-naphthalene-1-yl)amine] | – | – | 0.68 | 54 | –
15 | CCC(C)(C)Nc1nc2cc(Cl)c(Cl)cc2nc1S(C)(=O)=O [Example 135, (6,7-Dichloro-3-(methylsulfonyl)═quinoxalin-2-yl)tert-pentylamine] | – | – | 0.29 | 76 | –
16 | CC(C)Nc1nc2cc(Cl)c(Cl)cc2nc1S(=O)(=O)Cc1ccc(OC(F)F)cc1 [Example 136, (6,7-Dichloro-3-{[4-(difluoromethoxy)benzyl]sulfonyl}quinoxalin-2-yl)isopropylamine] | – | – | 0.82 | 64 | –
17 | CC(C)Sc1nc2cc(Cl)c(Cl)cc2nc1S(C)(=O)=O [Example 137, 6,7-Dichloro-2-(isopropylsulfanyl)-3-(methylsulfonyl)quinoxaline] | – | – | 0.66 | 46 | –
18 | Cn1ccnc1S(=O)(=O)c1nc2cc(Cl)c(Cl)cc2nc1NC(C)(C)C [Example 138, (6,7-Dichloro-3-[(1-methyl-1H-imidazol-2-yl)sulfonyl]quinoxalin-2-yl)-tert-butylamine] | – | – | 0.54 | 72 | –
19 | O=[N+]([O-])c1cc2nc(-c3ccccc3)c(C(F)(F)F)nc2cc1[N+](=O)[O-] [Example 145, 6,7-Dinitro-2-phenyl-3-trifluoromethylquinoxaline] | – | – | – | – | Emax at 0.33 µM [4]: 36%
20 | O=[N+]([O-])c1cc2ncc(-c3ccc(C(F)(F)F)cc3)nc2cc1[N+](=O)[O-] [Example 147, 6,7-Dinitro-2-(4-trifluoromethylphenyl)quinoxaline] | – | – | – | – | Emax at 1 µM [4]: 31%
21 | FC(F)(F)c1nc2cc(Cl)c(Cl)cc2nc1Sc1nccs1 [Example 156, 6,7-Dichloro-2-(thiazol-2-ylsulfanyl)-3-trifluoromethyl-quinoxaline] | – | – | – | – | Emax at 0.01 µM [4]: 42%
22 | O=C(c1ccccc1)c1ccc2nc(Br)c(C(F)(F)F)nc2c1 [Example 157, (2-Bromo-3-trifluoromethyl-quinoxalin-6-yl)phenyl Methanone] | – | – | – | – | Emax at 3.3 µM [4]: 15%
23 | Cc1nnc(Sc2nc3ccc(C(=O)c4ccccc4)cc3nc2C(F)(F)F)s1 [Example 158, [2-(5-Methyl-[1,3,4]thiadiazol-2-ylsulfanyl)-3-trifluorophenylquinoxalin-6-yl]phenyl Methanone] | – | – | – | – | melting point: 160 to 162 °C
24 | CC(C)CCS(=O)(=O)c1nc2cc(Cl)ccc2nc1C(F)(F)F [Example 169, 6-Chloro-3-(3-methylbutylsulfonyl)-2-trifluoromethyl-quinoxaline] | – | – | – | – | Emax at 1 µM [4]: 19%
25 | CC(C)CCS(=O)(=O)c1nc2ccc(Cl)cc2nc1C(F)(F)F [Example 170, 6-Chloro-2-(3-methylbutyl-1-sulfonyl)-3-trifluoromethyl-quinoxaline] | – | – | – | – | Emax at 1 µM [4]: 33%
